Reference: US6759238B1, “Multidrug resistance associated proteins and uses thereof” (priority 1999, dated 2004)
Where “and” joins values, the source holds several entries; their conditions need not be identical. Equal values may be shown once. Read-outs that look alike come from different tables or passages of the source.

Experiments:
[1] = system: CEM-r1 cells; test: Efflux of [3H]-AZT and its metabolites; type: in vitro ADME, human
Description: (§1) Cells were incubated for 60 minutes with [^3H]-AZT (10 μM) after which they were washed free of radioactivity, resuspended in drug-free medium and the intracellular and the extracellular concentration of [^3H]-AZT were measured. […] At least 80% of the AZTMP present intracellularly in CEM-r1 cells was excreted into the medium in 10 minutes (FIG. 6A).
(§2) Referring to Table 6 in greater detail, efflux kinetics were studied. Transport analysis of PMEA was conducted as previously described^48. […] The cells were then washed free of radioactivity and then incubated in drug-free medium in the presence of sodium azide and 2-deoxy-D-glucose. At various time periods, the amount of intracellular AZTMP was measured. As reported in Table 6, depletion of ATP led to an inhibition of AZTMP efflux (i.e. a significant accumulation of AZTMP in the CEM-r1 cells but not in the CEM-SS cells).
(§3) The suspension was centrifuged at 3,300 rpm for 7 minutes. All but 1 ml of the supernatant medium containing the free drug was aspirated. […] The cell pellet was then washed with ice-cold medium and resuspended at the same concentration in drug-free medium and maintained at 37° C. […] An aliquot of the top layer (cell free media) was analyzed for the quantitation of AZT and its metabolites.

[2] = Efflux of [3H]-AZT and its metabolites; type: in vitro ADME, human; conditions: human, read-out: Efflux kinetics, AZTMP t½
Description: as §1, §2, §3

[3] = system: CEM-SS cells; test: Phosphorylation of AZT; type: in vitro ADME, human; conditions: 10 μM AZT
Description: (§4) The appearance of the phosphorylated metabolites into the medium was also determined in both the cell lines. AZTDP and AZTTP were not detected in the medium of either CEM-SS or CEM-r1 cells. However, the amount of AZTMP accumulated in the media was approximately 3-fold higher in CEM-r1 cells than in CEM-SS cells.
(§5) The cartridges were conditioned with 10% MeOH Ammonium Phosphate Buffer (5 mM, pH 4.0). The sample was loaded onto the column. […] AZTDP and AZTTP were eluted with 10% MeOH Ammonium Phosphate Buffer (700 mm, pH 4.6).

[4] = system: CEM-r1 cells; test: Phosphorylation of AZT; type: in vitro ADME, human; conditions: for Extracellular Concentration / Intracellular Concentration: CEM-r1, 10 μM AZT
Description: as §4, §5

[5] = system: CEM-SS cells; test: Efflux of [3H]-AZT and its metabolites; type: in vitro ADME, human; set-up: half-life: dose or concentration left out as unconfirmed; conditions: CEMss, no treatment, after loading with [3H]-AZT
Description: as §1, §2, §3

[6] = Efflux of [3H]-AZT and its metabolites; type: in vitro ADME, human; set-up: half-life: dose or concentration left out as unconfirmed; conditions: human, CEMss, read-out: Efflux kinetics, AZTMP t½
Description: as §1, §2, §3

[7] = system: AZTMP efflux in CEM-r1 cells; test: Effect of inhibitors of ATP-coupled transporters on AZTMP efflux; type: cell-based, human; conditions: PGA1 50 μM, DPM 10 μM
Description: (§6) The suspension was centrifuged at 3,300 rpm for 7 minutes. All but 1 ml of the supernatant medium containing the free drug was aspirated. […] The cell pellet was then washed with ice-cold medium and resuspended at the same concentration in drug-free medium and maintained at 37° C.

[8] = system: AZTMP efflux in CEM-SS cells; test: as above; type: cell-based, human; conditions: PGA1 50 μM, DPM 10 μM
Description: as §6

[9] = CEMr-1, no treatment, after loading with [3H]-AZT

Cc1cn([C@H]2C[C@H](N=[N+]=[N-])[C@@H](COP(=O)(O)O)O2)c(=O)[nH]c1=O [AZTMP, azido-thymidine monophosphate]
Intracellular AZTMP excreted into the medium ([1]; CEM-r1, in 10 minutes): At least 80% | Efflux kinetics, AZTMP t½ [1, 9]: 4 min and 4.3 min | half-life at 10 μM ([2]; CEMr-1, Azide + Deoxyglucose): 18.1 min | half-life at 10 μM [2, 9]: 4.5 min | Extracellular Concentration ([3]; 4 hours): 46 nM | Intracellular Concentration ([3]; 4 hours): 89 µM | Extracellular Concentration ([3]; 8 hours): 151 nM | Intracellular Concentration ([3]; 8 hours): 95 µM | Extracellular Concentration ([3]; 24 hours): 555 nM | Intracellular Concentration ([3]; 24 hours): 50 µM | Amount accumulated in the media, CEM-r1 vs CEM-SS ([4]; 10 μM AZT): approximately 3 fold | Extracellular Concentration ([4]; 4 hours): 132 nM | Intracellular Concentration ([4]; 4 hours): 13.6 µM | Extracellular Concentration ([4]; 8 hours): 420 nM | Intracellular Concentration ([4]; 8 hours): 15.9 µM | Extracellular Concentration ([4]; 24 hours): 1716 nM | Intracellular Concentration ([4]; 24 hours): 12.3 µM | Efflux kinetics, AZTMP t½ [5]: 17.1 min | half-life at 10 μM ([6]; Azide + Deoxyglucose): 16.3 min | half-life ([6]; no treatment, after loading with [3H]-AZT): 17.5 min

CCCCC[C@H](O)/C=C/[C@H]1C=CC(=O)[C@@H]1CCCCCCC(=O)O [PGA1, prostaglandin A1]
Effect on efflux of AZTMP [7]: markedly inhibited | Effect on efflux of AZTMP [8]: no effect
